Results reported in patent US8017612B2, “Piperazine compound and use thereof as a HCV polymerase inhibitor” (priority 2006, dated 2011).
Where a name gives a salt, the structure may show the parent alone.

Legend:
[1] = target: T1, HCV polymerase (NS5B) type 1a (Hepatitis C virus genotype 1a, UniProt P26664); test: Assay of enzyme (HCV polymerase) inhibitory activity, type 1a enzyme; type: biochemical, HCV type 1a (cloned from the blood of patients)
T1 construct: made in house; host or cells: Escherichia coli (by the 'similar method' of the 1b enzyme)
How it was run: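 Reactions ran 60 min at 25° C in 20 mM Tris-HCl pH 7.5, 5 mM MgCl2, 50 mM NaCl, holding genotype 1a NS5B (1.5 μg/ml, Δ47 C-terminus, 6His), substrate RNA 5 μg/ml, UTP 2 μM with tritiated UTP and other NTPs 50 μM. IC50 derived from incorporated radiolabel in filter-trapped RNA relative to uninhibited reaction.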

[2] = target: T2, HCV polymerase (NS5B) type 1b (Hepatitis C virus genotype 1b, UniProt P26663); test: Assay of enzyme (HCV polymerase) inhibitory activity, type 1b enzyme; type: biochemical, HCV BK strain (type 1b)
T2 construct: a region encoding NS5B (J Virol 1991 March, 65(3), 1105-13, 544 amino acids after deletion of 47 amino acids on the C-terminal); 6xHis (C); made in house; host or cells: Escherichia coli
How it was run: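 IC50 derived from [3H]UTP incorporation into TCA-insoluble RNA, compared with and without test compound. Reaction (25 °C, 60 min, Tris pH 7.5, 5 mM MgCl2): E. coli-expressed 1b NS5B Δ47 with His tag at 0.5 μg/ml, 5 μg/ml run-off substrate RNA, ATP/GTP/CTP 50 μM, UTP 2 μM.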

[3] = HCV polymerase inhibitory activity IC50, 1a, type 1a enzyme
[4] = HCV polymerase inhibitory activity IC50, 1b, type 1b enzyme
[5] = HCV polymerase inhibitory activity (IC50), 1a, type 1a enzyme 1.5 μg/ml, 25° C., 60 min
[6] = HCV polymerase inhibitory activity (IC50), 1b, type 1b enzyme 0.5 μg/ml, 25° C., 60 min

Compound | IC50 [1, 3] [nM] | IC50 [2, 4] [nM] | IC50 [1, 5] [nM] | IC50 [2, 6] [nM]
CCC(F)(F)c1ccc(CNC(=O)[C@H]2CN(c3ccc4nccnc4n3)CCN2S(=O)(=O)c2ccc(OC(F)(F)F)cc2)cc1 [Example 748, (R)-4-pyrido[2,3-b]pyrazin-6-yl-1-(4-trifluoromethoxy-benzenesulfonyl)-piperazine-2-carboxylic acid 4-(1,1-difluoro-propyl)-benzylamide] | < 100 | < 100 | – | –
CCC(F)(F)c1ccc(CNC(=O)[C@H]2CN(c3nc4nc(C)ncc4s3)CCN2S(=O)(=O)c2ccc(OC(F)(F)F)cc2)cc1 [Example 926, (R)-4-(5-methyl-thiazolo[4,5-d]pyrimidin-2-yl)-1-(4-trifluoromethoxy-benzenesulfonyl)-piperazine-2-carboxylic acid 4-(1,1-difluoro-propyl)-benzylamide] | < 100 | < 100 | – | –
CC(C)c1ccc(S(=O)(=O)N2CCN(C3=NCCN3)CC2C(=O)NCc2ccc(C(F)(F)F)cc2)cc1 (stereo not shown) [Example 103, 4-(4,5-dihydro-1H-imidazol-2-yl)-1-(4-isopropyl-benzenesulfonyl)-piperazine-2-carboxylic acid 4-trifluoromethyl-benzylamide] | – | – | > 1000 | > 1000
CCC(C)(C)c1ccc(CNC(=O)[C@H]2CN(c3nc4cn[nH]c(=O)c4s3)CCN2S(=O)(=O)c2ccc(OC(F)(F)F)cc2)cc1 [Example 840, (R)-4-(7-oxo-6,7-dihydro-thiazolo[4,5-d]pyridazin-2-yl)-1-(4-trifluoromethoxy-benzenesulfonyl)-piperazine-2-carboxylic acid 4-(1,1-dimethyl-propyl)-benzylamide] | < 100 | < 100 | – | –
CCCN(C)c1ccc(CNC(=O)C2CN(C(C)=O)CCN2S(=O)(=O)c2ccc(C(C)C)cc2)cc1 (stereo not shown) [Example 202, 4-acetyl-1-(4-isopropyl-benzenesulfonyl)-piperazine-2-carboxylic acid 4-(methyl-propyl-amino)-benzylamide] | – | – | > 1000 | 100 to 1000
O=C(NCc1ccc(OC(F)(F)F)cc1)[C@H]1CN(c2nn3c(C(F)(F)F)cc(=O)nc3s2)CCN1S(=O)(=O)c1ccc(OC(F)(F)F)cc1 [Example 1049, (R)-4-(7-oxo-5-trifluoromethyl-7H-[1,3,4]thiadiazolo[3,2-a]pyrimidin-2-yl)-1-(4-trifluoromethoxy-benzenesulfonyl)-piperazine-2-carboxylic acid 4-trifluoromethoxy-benzylamide] | < 100 | < 100 | – | –
O=C(NCc1ccc(OC(F)(F)F)cc1)[C@H]1CN(c2cnc3cnccc3n2)CCN1S(=O)(=O)c1ccc([N+](=O)[O-])cc1 [Example 754, (R)-1-(4-nitro-benzenesulfonyl)-4-pyrido[3,4-b]pyrazin-2-yl-piperazine-2-carboxylic acid 4-trifluoromethoxy-benzylamide] | < 100 | < 100 | – | –
CCC(F)(F)c1ccc(CNC(=O)[C@H]2CN(C(=O)Nc3ccnc(Cl)c3)CCN2S(=O)(=O)c2ccc(OC(F)(F)F)cc2)cc1 [Example 517, (R)-4-(4-trifluoromethoxy-benzenesulfonyl)-piperazine-1,3-dicarboxylic acid 1-[(2-chloro-pyridin-4-yl)-amide] 3-[4-(1,1-difluoro-propyl)-benzylamide]] | – | – | < 100 | < 100
CC(=O)N1CCN(S(=O)(=O)c2ccc(C(C)C)cc2)C(C(=O)NCc2ccc(C(=O)O)cc2)C1 (stereo not shown) [Example 99, 4-({[4-acetyl-1-(4-isopropyl-benzenesulfonyl)-piperazine-2-carbonyl]-amino}-methyl)-benzoic acid] | – | – | > 1000 | > 1000
Cc1nc(N2CCN(S(=O)(=O)c3ccc(C(F)(F)F)cc3)[C@@H](C(=O)NCc3ccc(C(C)C)cc3)C2)c(C)nc1C(=O)O [Example 422, (R)-3-(4-isopropyl-benzylcarbamoyl)-3′,6′-dimethyl-4-(4-trifluoromethyl-benzenesulfonyl)-3,4,5,6-tetrahydro-2H-[1,2′]bipyrazinyl-5′-carboxylic acid] | – | – | > 1000 | > 1000
CCCc1ccc(CNC(=O)[C@H]2CN(c3nc(Cl)c(C(=O)O)s3)CCN2S(=O)(=O)c2ccc(OC(F)(F)F)cc2)cc1 [Example 847, 4-chloro-2-[(R)-3-(4-propyl-benzylcarbamoyl)-4-(4-trifluoromethoxy-benzenesulfonyl)-piperazin-1-yl]-thiazole-5-carboxylic acid] | < 100 | < 100 | – | –
CCCc1ccc(CNC(=O)[C@H]2CN(c3nc(C)c(C(O)C(=O)O)s3)CCN2S(=O)(=O)c2ccc(OC(F)(F)F)cc2)cc1 (stereo partly drawn) [Example 1092, hydroxy-{4-methyl-2-[(R)-3-(4-propyl-benzylcarbamoyl)-4-(4-trifluoromethoxy-benzenesulfonyl)-piperazin-1-yl]-thiazol-5-yl}-acetic acid] | 100 to 1000 | < 100 | – | –
O=C(NCC1CC(c2ccccc2)C1)[C@H]1CN(c2nc3cn[nH]c(=O)c3s2)CCN1S(=O)(=O)c1ccc(OC(F)(F)F)cc1 (stereo partly drawn) [Example 899, (R)-4-(7-oxo-6,7-dihydro-thiazolo[4,5-d]pyridazin-2-yl)-1-(4-trifluoromethoxy-benzenesulfonyl)-piperazine-2-carboxylic acid (3-phenyl-cyclobutylmethyl)-amide] | > 1000 | 100 to 1000 | – | –
COc1ccc(CNC(=O)C2CN(C(C)=O)CCN2S(=O)(=O)c2ccc(C(C)C)cc2)c(OC)c1 (stereo not shown) [Example 197, 4-acetyl-1-(4-isopropyl-benzenesulfonyl)-piperazine-2-carboxylic acid 2,4-dimethoxy-benzylamide] | – | – | > 1000 | > 1000
CCCc1ccc(CNC(=O)[C@H]2CN(c3nc(C)c(C(=O)O)s3)CCN2S(=O)(=O)c2ccc(OC(F)(F)F)c(F)c2)cc1 [Example 509, 2-[(R)-4-(3-fluoro-4-trifluoromethoxy-benzenesulfonyl)-3-(4-propyl-benzylcarbamoyl)-piperazin-1-yl]-4-methyl-thiazole-5-carboxylic acid] | – | – | < 100 | < 100
CCCc1ccc(CNC(=O)[C@H]2CN(C(=O)Nc3ccccc3C(=O)OC)CCN2S(=O)(=O)c2ccc(OC(F)(F)F)cc2)cc1 [Example 831, 2-{[(R)-3-(4-propyl-benzylcarbamoyl)-4-(4-trifluoromethoxy-benzenesulfonyl)-piperazine-1-carbonyl]-amino}-benzoic acid methyl ester] | > 1000 | > 1000 | – | –
CCCc1ccc(CNC(=O)[C@H]2CN(c3nc(C)c(S(=O)(=O)N(C)C)s3)CCN2S(=O)(=O)c2ccc(OC(F)(F)F)cc2)cc1 [Example 829, (R)-4-(5-dimethylsulfamoyl-4-methyl-thiazol-2-yl)-1-(4-trifluoromethoxy-benzenesulfonyl)-piperazine-2-carboxylic acid 4-propyl-benzylamide] | 100 to 1000 | < 100 | – | –
CCC(F)(F)c1ccc(CNC(=O)[C@H]2CN(c3nc4cccnc4s3)CCN2S(=O)(=O)c2ccc(OC(F)(F)F)cc2)cc1 [Example 739, (R)-4-thiazolo[5,4-b]pyridin-2-yl-1-(4-trifluoromethoxy-benzenesulfonyl)-piperazine-2-carboxylic acid 4-(1,1-difluoro-propyl)-benzylamide] | < 100 | < 100 | – | –
CCC(F)(F)c1ccc(CNC(=O)[C@H]2CN(C(=O)Nc3nnc(C(C)=O)s3)CCN2S(=O)(=O)c2ccc(OC(F)(F)F)cc2)cc1 [Example 483, (R)-4-(4-trifluoromethoxy-benzenesulfonyl)-piperazine-1,3-dicarboxylic acid 1-[(5-acetyl-[1,3,4]thiadiazol-2-yl)-amide] 3-[4-(1,1-difluoro-propyl)-benzylamide]] | – | – | > 1000 | > 1000
O=C(NCc1ccc(OC(F)(F)F)cc1)[C@H]1CN(c2cnc3cncnc3n2)CCN1S(=O)(=O)c1ccc(Br)s1 [Example 789, (R)-1-(5-bromo-thiophene-2-sulfonyl)-4-pteridin-7-yl-piperazine-2-carboxylic acid 4-trifluoromethoxy-benzylamide] | < 100 | < 100 | – | –
CCc1ccc(S(=O)(=O)N2CCN(C(C)=O)CC2C(=O)NCc2ccc(C(F)(F)F)cc2)cc1 (stereo not shown) [Example 60, 4-acetyl-1-(4-ethyl-benzenesulfonyl)-piperazine-2-carboxylic acid 4-trifluoromethyl-benzylamide] | – | – | > 1000 | > 1000
CCCc1ccc(CNC(=O)[C@H]2CN(c3cnc(C(=O)OC)c(NC(C)=O)n3)CCN2S(=O)(=O)c2ccc(OC(F)(F)F)cc2)cc1 [Example 515, (R)-6′-acetylamino-3-(4-propyl-benzylcarbamoyl)-4-(4-trifluoromethoxy-benzenesulfonyl)-3,4,5,6-tetrahydro-2H-[1,2′]bipyrazinyl-5′-carboxylic acid methyl ester] | – | – | < 100 | < 100
CC(C)c1ccc(S(=O)(=O)N2CCNCC2C(=O)NCc2ccc(C(F)(F)F)cc2)cc1 (stereo not shown) [Example 15, 1-(4-isopropyl-benzenesulfonyl)-piperazine-2-carboxylic acid 4-trifluoromethyl-benzylamide hydrochloride] | – | – | > 1000 | > 1000
